# Laboratory results reported in US11465987B2, “Compounds for treatment of cancer” (ONCTERNAL THERAPEUTICS, INC., priority 2012, dated 2022).
# Like-named read-outs stand apart in the source and are kept apart here.
# Key:
# [1] = test system: PPC-1 human prostate cancer cell line; assay: Cytotoxicity (SRB) assay, PPC-1; type: cell-based; settings: Homo sapiens, PPC-1, SRB assay, prostate cancer PPC-1; read-out: IC50 PPC-1
# Source text: (§1) Cells were stained with SRB solution.
# [2] = test system: A375 human melanoma cell line; assay: Cytotoxicity (SRB) assay, A375; type: cell-based; settings: Homo sapiens, A-375, SRB assay, human melanoma A375; read-out: IC50 A375
# [3] = test system: B16-F1 mouse melanoma cell line; assay: Cytotoxicity (SRB) assay, B16-F1; type: cell-based; settings: Mus musculus, B16-F1, SRB assay, mouse melanoma B16-F1; read-out: IC50 B16-F1
# [4] = test system: DU 145 human prostate cancer cell line; assay: Cytotoxicity (SRB) assay, DU 145; type: cell-based; settings: Homo sapiens, DU-145, SRB assay, prostate cancer DU 145; read-out: IC50 DU 145
# Source text: as §1
# [5] = Pharmacokinetic study in Sprague-Dawley rats; settings: rat
# [6] = test system: melanoma and prostate cancer cell lines; assay: Antiproliferative activity summarised over the cell line panel (range or average); type: cell-based; settings: read-out: IC50 (range over tested cell lines)
# [7] = Aqueous solubility, Multiscreen Solubility Filter Plate, PBS pH 7.4
# [8] = test system: LNCaP human prostate cancer cell line; assay: Cytotoxicity (SRB) assay, LNCaP; type: cell-based; settings: Homo sapiens, LNCaP, SRB assay, prostate cancer LNCaP; read-out: IC50 LNCaP
# Source text: as §1
# [9] = test system: PC-3 human prostate cancer cell line; assay: cells; settings: Homo sapiens
# Source text: as §1
# [10] = test system: T1, tubulin colchicine binding site; assay: [3H]-colchicine competition-binding scintillation proximity assay; settings: SPA, 0.03-100 μM
# T1 construct: […]
# WM-164 melanoma cells = assay: Microtubule imaging (immunofluorescence); type: cell-based, human; settings: WM-164 cells, 18 h
# Source text: Primary antibody for tubulin and fluorescence-labeled secondary antibody were subsequently added to the cells. Cell nuclei were stained by DAPI. Whole Cell Stain Green was also applied to all cells. All images were acquired with an Olympus IX71 inverted fluorescence microscope (Olympus Corp., Tokyo, Japan) with overlays from separate images of tubulin (red), nuclei (blue), and whole cells (green).
# PC-3 xenograft = assay: In vivo PC-3 prostate tumor xenograft; settings: for mice that lost more than 15% body weight: PC-3 xenograft, 15 mg/kg i.p.; for tumor volume at day 21: control 680 mm^3
# PC-3 cells [11] = assay: Apoptosis detection by ELISA (cytoplasmic DNA-histone complexes), PC-3; type: cell-based, human; settings: PC-3 and A375 cells, 24 h
# Source text: Quantification of the Enrichment of Mono- and oligonucleosomes in the cytoplasm was used to determine the ability of the compounds to induce apoptosis (cell death detection ELISA PLUS, Roche, Germany) following the manufacturer's instructions.
# [12] = test system: NCI/ADR-RES (P-gp over-expressing resistant line of OVCAR-8); assay: Cytotoxicity (SRB) assay, NCI/ADR-RES; type: cell-based, human; settings: NCI/ADR-RES versus OVCAR-8
# in vivo = settings: male, ICR, mouse, plasma, iv, 15 mg/kg
# [13] = Rotarod test (in vivo neurotoxicity); set-up: species or system mouse; settings: ICR mice, i.p. daily; 1h 5 or 15 mg/kg, vinblastine 0.5 mg/kg
# Protocol: ICR mice received training three times a day for two days to enable them to stay on the rotating rod for >120 seconds at 12 rpm. Mice were then randomized by the length of time that they could stay on the rotating rod and divided into 7-8 mice per group. […] The rotarod test was performed twice a week. […] The rod speed was increased from […] to 40 rpm over a period of 5 min. Performance was measured as the length of time that a mouse could stay on the rotating rod.
# Bovine brain tubulin = assay: In vitro tubulin polymerization assay (bovine brain tubulin); type: biochemical; settings: 10 μM
# Protocol: The spectrophotometer was maintained at 37° C. for tubulin polymerization.
# [14] = test system: tubulin (colchicine, vinblastine and paclitaxel binding sites); assay: MS competition binding assay; settings: competitive mass binding assay
# Source text: Each reaction was run in triplicate.
# PC-3 cells [15] = assay: Cell cycle analysis (PI staining, FACS), PC-3; type: cell-based; settings: Homo sapiens, read-out: G2M phase arrest EC50
# Protocol: Cell cycle distribution was determined by propidium iodide (PI) staining. Treated cells were washed with PBS and fixed with 70% ice-cold ethanol overnight. Fixed cells were then stained with 20 μg/mL of PI in the presence of RNase A (300 μg/mL) at 37° C. for 30 min. Cell cycle distribution was analyzed by fluorescence-activated cell sorting (FACS) analysis core services at the University of Tennessee Health Science Center, TN.
# Flow cytometry was performed to study the effects of the compounds on cell cycle distribution. […] Cellular DNA was stained with 100 μg/mL propidium iodide and 100 μg/mL RNase A in PBS and flow cytometry was performed to determine the cell cycle distribution of the cells.
# [16] = test system: confluent HUVEC monolayers; assay: Endothelial monolayer permeability assay; settings: FITC-dextran leakage, 1, 2, 4 h
# [17] = test system: HUVEC capillary tube formation on Matrigel; assay: Capillary formation assay; type: cell-based, human; settings: at toxic concentration
# [18] = test system: HUVEC (Human Umbilical Vein Endothelial Cells); assay: Endothelial cell growth inhibition (SRB); type: cell-based; settings: HUVEC vs prostate cancer cells
# [19] = Pharmacokinetic study in ICR mice; settings: mice, 15 mg/kg i.v.
# [20] = test system: A375 human melanoma xenograft; assay: In vivo A375 human melanoma xenograft; settings: Melanoma (A375) xenograft, 15 mg/kg i.p.
# [21] = IV, 1h and 2r […], 5Ha and 5Hc 5 mg/kg
# [22] = read-out: IC50 PC-3, SRB assay, prostate cancer PC-3
# [23] = read-out: IC50 ± SEM, PC-3, Table 21, n = 3
structure (smiles),measurement,setting,value
"COc1cc(C(=O)c2csc(-c3ccc(CN)cc3)n2)cc(OC)c1OC.Cl [2r, (2-(4-(Aminomethyl)phenyl)thiazol-4-yl)(3,4,5-trimethoxyphenyl)methanone hydrochloride]",IC50,[1],34 nM
same,IC50,[2],41 ± 13 nM
same,IC50,[3],38 ± 11 nM
same,IC50,[4],25 nM
same,"F, percent oral bioavailability",[5],0.2%
same,"CL, systemic clearance",[5]; [21],22 ± 13 mL/min/kg
same,"Vss, volume of distribution following intravenous dosing",[5]; [21],0.33 ± 0.25 L/kg
same,"Cmax, PO","[5]; PO, 1h, 5Ha, 5Hc 10 mg/kg, 2r 4 mg/kg",3794 ± 1580 ng/mL
same,IC50,[6],13 to 80 nM
same,increase of solubility,"[7]; HCl salt, PBS",over 35 fold
same,aqueous solubility in PBS,[7]; PBS pH 7.4,over 35 μg/mL
same,IC50,[8],13 nM
same,IC50,[9]; [22],80 nM
"CC(=O)O[C@H]1C(=O)[C@@]2(C)[C@H]([C@H](OC(=O)c3ccccc3)[C@]3(O)C[C@H](OC(=O)[C@H](O)[C@@H](NC(=O)c4ccccc4)c4ccccc4)C(C)=C1C3(C)C)[C@]1(OC(C)=O)CO[C@@H]1C[C@@H]2O [paclitaxel, reference compound]",colchicine site binding in words,[10],only a flat line
same,effect on microtubules in words,WM-164 melanoma cells,condensation of microtubules
"COc1cc(C(=O)c2c[nH]c(-c3ccc(C)cc3)n2)cc(OC)c1OC [12da, (2-(p-tolyl)-1H-imidazol-4-yl)(3,4,5-trimethoxyphenyl)methanone]",colchicine site binding in words,[10],highest binding affinity
same,effect on microtubules in words,WM-164 melanoma cells,microtubule fragmentation
"COc1cc(C(=O)c2csc(-c3ccc(O)cc3)n2)cc(OC)c1OC [2l, (2-(4-Hydroxyphenyl)thiazol-4-yl)(3,4,5-trimethoxyphenyl)methanone]",IC50,[6],76 to 116 nM
same,% T/C,"PC-3 xenograft; PC-3, 50 mg/kg i.p.",34%
same,% T/C,"PC-3 xenograft; Prostate (PC-3) xenograft, 50 mg/kg i.p.",34%
same,concentration inducing apoptosis,PC-3 cells [11],greater than or equal to 200 nM
same,Resistance factor,[12],0.4
same,AUC,in vivo,2600 ng·h/mL
same,Vd,in vivo,16.5 L/kg
same,clearance,in vivo,90 mL/min/kg
same,half-life,in vivo,12.3 h
same,IC50,[9]; [22],87 nM
same,IC50,[9]; [23],87 ± 5 nM
"COc1cc(C(=O)c2csc(-c3ccccc3)n2)cc(OC)c1OC [1h, (2-Phenyl-thiazol-4-yl)-(3,4,5-trimethoxy-phenyl)-methanone]",dose not causing greater than 10% loss of body weight,"ICR, mouse, in vivo, ip",up to 30 mg/kg
same,rotarod performance in words,[13],no significant difference
same,% T/C,"PC-3 xenograft; PC-3, 5 mg/kg i.p.",29%
same,% T/C,"PC-3 xenograft; PC-3, 15 mg/kg i.p.",4%
same,mice that lost more than 15% body weight,PC-3 xenograft,1 of 8
same,inhibition of tubulin polymerization,Bovine brain tubulin; absorbance 340 nm over 15 min,90%
same,inhibition of tubulin polymerization,"Bovine brain tubulin; after 20 min incubation, vs vehicle",47%
same,competition for tubulin binding sites in words,[14],specifically competed with colchicine binding to tubulin
same,IC50,[9]; [22],29.1 ± 1.1 nM
same,IC50,"[9]; read-out: IC50 in PC3, Table 16B",21 nM
same,IC50,[9]; [23],21 ± 1 nM
"c1cc2ccc(-c3ccc4[nH]ccc4c3)cc2c(-c2ccc3[nH]ccc3c2)n1 [6b, 1,7-Bis-(1H-indol-5-yl)-isoquinoline]",EC50,PC-3 cells [15],91.9 nM
COc1cccc2c1C(=O)c1c(O)c3c(c(O)c1C2=O)C[C@@](O)(C(=O)CO)C[C@@H]3O[C@H]1C[C@H](N)[C@H](O)[C@H](C)O1 [doxorubicin],permeability of endothelial cell monolayer in words,[16],did not induce any change
same,capillary construction in words,[17],did not affect the capillary construction
same,times more active against endothelial cells than against cancer cells,[18],not specific to endothelial cells
COc1cc(-c2nccc3ccc(-c4ccc5[nH]ccc5c4)cc23)cc(OC)c1OC [6a],EC50,PC-3 cells [15],53.4 nM
same,IC50,"[9]; read-out: IC50, PC-3, Table 7",64.4 ± 12.2 nM
COc1cc(C(=O)c2csc(-c3ccc(F)cc3)n2)cc(OC)c1OC [2k],dose not causing greater than 10% loss of body weight,"ICR mice, 4 consecutive days of intraperitoneal dosing",≤ 15 mg/kg
same,AUC,[19],2200 ng·h/mL
same,% T/C,"PC-3 xenograft; PC-3, 5 mg/kg i.p.",21%
same,tumor volume at day 21,"PC-3 xenograft; PC-3, 5 mg/kg i.p. daily",269 mm^3
same,% T/C,"PC-3 xenograft; PC-3, 15 mg/kg i.p.",24%
same,tumor volume at day 21,"PC-3 xenograft; PC-3, 15 mg/kg i.p. daily",292 mm^3
same,mice that lost more than 15% body weight,PC-3 xenograft,2 out of 7
same,% T/C,[20],28%
same,T-C,[20],11 days
same,inhibition of tubulin polymerization,Bovine brain tubulin; absorbance 340 nm over 15 min,90%
